Measurements reported in patent US11096952B2, “Chemicals and methods to prevent and treat TGF-beta mediated activation of fibroblasts to reduce and treat cancer and fibrosis” (Board of Supervisors of Louisiana State University and …, priority 2016, dated 2021).

What was measured:
[1] = test system: transcriptional upregulation of activated fibroblasts markers by TGF-β or IL-8; conditions: MRC-5, 10 ng/mL TGF-β or 20 ng/ml IL-8, 24 hours; digoxin 150 nM, pyrvinium 300 nM
Procedure: Expression of the indicated genes was analyzed by real-time qPCR. TGFβ treated samples were set at 1 and other conditions were normalized accordingly. FN1: fibronectin, YAPv4: yes-activated protein, TNC: tenascin C, Col1A1: collagen 1a1, WWTR1v2: WW domain-containing transcription regulator protein 1 (TAZ), and SNAI1: Snail1. Representative data from at least two independent experiments are provided.

[2] = test system: TGF-β-induced fibronectin; assay: High content imaging (Cellomics) screen for inhibitors of fibronectin induction by TGF-beta in WPMY-1 cells; assay type: cell-based, human; conditions: WPMY-1, 0-100 uM, TGF-β 24 hour
Procedure: Inhibitors of CAF Differentiation. A. WPMY-1 cells were plated into each well of 4-chamber slice (for IF), or (C) in a 24 well plate (for western blot analysis). After cell attachment, vehicle or 5 ng/ml TGF-β was added into each well and incubated for 24 h in a 37° C. in a humidified incubator containing 5% CO2. For fluorescence detection (A), cells were fixed and stained with antibody detecting fibronectin and/or stained with DAPI to detect the nuclei. Protein was extracted with boiling Lamaelli buffer for WB (C) and blots were probed with anti-fibronectin or anti-tubulin antibodies. Fibronectin fluorescence (D and E) was measured in the presence or absence of TGF-β in 8 well replicates as follows. Cells were conditioned in serum-free DMEM for 48 hr prior to the addition of TGF-β. Images were acquired using a Cellomics platform with a mask shown in the schematic of (B). The mean of the total fluorescence intensity in each well was calculated from 300 cells per image field and up to 15 fields from each well for fibronectin. […]
FIGS. 4A-4H: Dose response for identified hits. As shown in the four panels of FIG. 4A, fibronectin fluorescence was measured from images acquired following a Cellomics scan using WPMY-1 cells with concentrations of hits over a range of 0-100 uM. […] Results were expressed as percent inhibition caused by cells treated with TGF-β alone and without testing compound, which was considered as 100%. […]
FIGS. 14-15 show Table I—Prestwick Library and Table II—NIH Library chemicals respectively. […] A “hit” was defined as a compound causing at least 50% reduction of “Mean_RingTotal Intensity”, which is the fluorescence intensity within the defined ring (see FIG. 2) surrounding nucleus of each cell, summed for 300 cells per image and 15 fields per image. The solvent, 0.1% Dimethyl Sulfoxide (DMSO), with and without TGF-beta served as an internal control on each plate to normalize day-to-day and plate-to-plate variation with DMSO alone as low fluorescence (0%) and TGF-β treated as maximal fluorescence (100%). […]

[3] = test system: TGF-β-induced CAF differentiation markers; assay: Real-Time PCR of CAF markers in MRC-5 fibroblasts; assay type: cell-based, human; conditions: MRC-5, 120 nM digoxin, 5 ng/ml TGF-β, 24 h
Procedure: In order to determine if digoxin prevents CAF differentiation or simply TGF-β-induced fibronectin expression, the inventors performed quantitative reverse transcriptase-PCR (qPCR) to analyze other CAF markers, including α-SMA, collagen 1a1 (COL1A1), fibroblast activation protein (FAP), and tenascin C (TNC). RNA was extracted from cells treated with 120 nM digoxin±TGF-β for 24 hours. […] Additionally, the inventors observed that α-SMA mRNA expression was already high in WPMY-1 cells and not increased by addition of TGF-β, but was reduced in response to digoxin treatment.

[4] = test system: TGF-β-induced fibronectin expression; assay: Western blot of TGF-β-induced fibronectin expression in WPMY-1 fibroblasts; assay type: cell-based, human; conditions: WPMY-1, 5 ng/ml TGF-β, digoxin 30, 60, 120, 240 nM, 24 hours
Procedure: Inhibitors of CAF Differentiation. A. WPMY-1 cells were plated into each well of 4-chamber slice (for IF), or (C) in a 24 well plate (for western blot analysis). After cell attachment, vehicle or 5 ng/ml TGF-β was added into each well and incubated for 24 h in a 37° C. in a humidified incubator containing 5% CO2. For fluorescence detection (A), cells were fixed and stained with antibody detecting fibronectin and/or stained with DAPI to detect the nuclei. Protein was extracted with boiling Lamaelli buffer for WB (C) and blots were probed with anti-fibronectin or anti-tubulin antibodies. Fibronectin fluorescence (D and E) was measured in the presence or absence of TGF-β in 8 well replicates as follows. Cells were conditioned in serum-free DMEM for 48 hr prior to the addition of TGF-β. Images were acquired using a Cellomics platform with a mask shown in the schematic of (B). The mean of the total fluorescence intensity in each well was calculated from 300 cells per image field and up to 15 fields from each well for fibronectin. The fold change in fibronectin expression per acquired image (nuclei) is shown (Mean+/−SD).
Panel A1 is the control, Panel A2 is the TGF-β treated wells and Panel A3 is TGF-β plus PsA at 5 micromolar. Images were captured using the Cellomics imaging system.
Representative blots are shown with two exposures of fibronectin to account for strong signal intensity. n=3.
FIGS. 9A-9B: Increases in intracellular Ca^2+ prevent TGF-β-induced fibronectin expression. (A) WPMY-1 fibroblasts were treated with 2.5 μM thapsigargin±5 ng/ml TGF-β for 24 hours. (B) WPMY-1 fibroblasts were treated with 2.5-10 μM 3′,4′-dichlorobenzamil hydrochloride (DCB)±5 ng/ml TGF-β for 24 hours. Cell lysates were analyzed by western blot for fibronectin expression.
Because of the observed low nanomolar effective concentration of the cardiac glycosides, the inventors hypothesized that the cardiac glycosides may be acting by binding to their high affinity target, the Na^+/K^+ ATPase, and that action through the ATPase is the mechanism by which the cardiac glycosides are able to block TGF-β-induced fibronectin expression. It is well documented that inhibition of the Na^+/K^+ ATPase by digoxin leads to increases in intracellular Ca^2+ by preventing Ca^2+ efflux through the Na^+/Ca^2+ exchanger. In order to determine if increased intracellular Ca^2+ is sufficient to prevent TGF-β-induced fibronectin expression, the inventors utilized two compounds that increase intracellular Ca^2+ concentrations. 3′,4′-dichlorobenzamil hydrochloride (DCB) inhibits the Na^+/Ca^2+ exchanger, Na^+ transport, and sarcoplasmic reticulum Ca^2+ release channels. Thapsigargin inhibits the endoplasmic reticulum Ca^+ ATPase, preventing storage of Ca^2+ in the endoplasmic reticulurn, causing an accumulation in the cytoplasm. Cells were treated with 2.5-10 μM of DCB or thapsigargin±TGF-β for 24 hours.

Compound: C[C@H]1O[C@@H](O[C@H]2[C@@H](O)C[C@H](O[C@H]3[C@@H](O)C[C@H](O[C@H]4CC[C@@]5(C)[C@H](CC[C@@H]6[C@@H]5C[C@@H](O)[C@]5(C)[C@@H](C7=CC(=O)OC7)CC[C@]65O)C4)O[C@@H]3C)O[C@@H]2C)C[C@H](O)[C@@H]1O [digoxin]
- transcriptional induction of collagen 1a1, tenascin C, fibronectin, YAP, Snail (TGF-β) and TAZ (IL-8) [1]: prevented the transcriptional induction of collagen 1a1, tenascin C, fibronectin, YAP and Snail downstream of TGF-β signaling and TAZ downstream of the fibroblast chemokine IL-8
- IC50 / potency for inhibition of TGF-β-induced fibronectin (dose response) [2]: very low IC50
- TGF-β-induced expression of FN1, α-SMA, COL1A1, TNC mRNA [3]: prevented TGF-β-induced expression
- TGF-β-induced fibronectin expression (western blot) [4]: prevents TGF-β-induced fibronectin expression in a dose dependent manner
